Experimental data as given in patent US20260365633A1, “Novel PEM Structures for SBX” (Roche Sequencing Solutions, Inc., priority 2023, published 2026).
Like-named read-outs stand apart in the source and are kept apart here.

How the values were obtained:
DNA polymerase = assay: Primer extension with XNTPs, gel electrophoresis (PEM screen, 45mer template); format: biochemical; conditions: for primer extension products with XNTPs: 45mer template, FIG. 4, vs no PEM additive (up to only around 14 XNTPs)
From the text: The Sequencing by Expansion (SBX) methodology developed by the inventors provides significant performance enhancements in sequence read efficiency and accuracy of Xpandomers relative to native DNA. However, initial transcription of the sequence of the natural DNA template onto the measurable Xpandomer relies on the ability of DNA polymerase to utilize XNTPs as substrates (the generalized structure of an XNTP is discussed herein with reference to FIG. 1A and FIG. 2). […] In an effort to improve the efficiency and accuracy of XNTP polymerization into Xpandomers, several PEMs were screened for the ability to enhance DNA polymerase primer extension reactions using XNTPs as substrates.
A representative primer extension reaction may include the following reagents: 2 pmol primer, 2.2 pmol 45mer [COMPOUND LEFT OUT] template, 50 pmol of each XNTP (XATP, XCTP, XGTP, and XTTP), 50 Mm Tris HCl, Ph 6.79, 200 Mm NaCl, 20% PEG, 5% NMS, 0.5 nmol polyphosphate 60.19, 0.3 Mm MnCl2, and 0.6 μg of purified recombinant DNA polymerase protein. Reactions may be run for 1 hour at 23 °C. Reaction products (i.e., constrained Xpandomers) are treated to cleave the phosphoramidate bonds, thereby generating linearized Xpandomers. Reaction products may be analyzed using gel electrophoresis on 4-12% acrylamide gels to resolve and visualize Xpandomer products of different lengths. For the PEM screen described above, PEMs were typically tested in the micro to millimolar range.

[1] = target: T1, C4760 DNA polymerase (a variant of DPO4) (Saccharolobus solfataricus, UniProt Q97W02, A155G/A42V/D156R/D292Y/D294N/E291S/E324K/E325K/E327K/E63R/E79L/G187P/G299W/I153V/I189F/I248T/I295S/K152A/K317Q/K321Q/K56Y/K78D/L293W/M76W/N188Y/P184Q/Q82W/Q83G/R300S/S297Y/S86E/T290K/T301W/V289W/V296Q); format: biochemical, Sulfolobus solfataricus; conditions: for XNTP polymerization relative to compound 10: 30 minutes at 23 °C; for XNTP polymerization relative to compound 14: compound 16 at 2 Mm, compound 17 at 0.5, 1, 2, 3 Mm, 30 minutes at 37 °C, FIG. 13
T1 construct: Eco or Kod SSB in reaction as additive
T1 sequence (Q97W02 1-340 A155G/A42V/D156R/D292Y/D294N/E291S/E324K/E325K/E327K/E63R/E79L/G187P/G299W/I153V/I189F/I248T/I295S/K152A/K317Q/K321Q/K56Y/K78D/L293W/M76W/N188Y/P184Q/Q82W/Q83G/R300S/S297Y/S86E/T290K/T301W/V289W/V296Q): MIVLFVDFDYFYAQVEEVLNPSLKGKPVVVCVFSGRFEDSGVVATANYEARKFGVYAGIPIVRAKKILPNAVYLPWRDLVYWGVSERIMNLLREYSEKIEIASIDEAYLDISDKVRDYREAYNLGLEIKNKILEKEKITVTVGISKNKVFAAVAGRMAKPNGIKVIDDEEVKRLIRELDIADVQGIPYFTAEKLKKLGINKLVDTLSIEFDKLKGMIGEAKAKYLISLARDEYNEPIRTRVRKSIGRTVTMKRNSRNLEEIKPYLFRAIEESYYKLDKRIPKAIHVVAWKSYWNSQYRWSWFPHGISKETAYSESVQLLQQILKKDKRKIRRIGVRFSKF
Protocol: (§1) PEM activity of compound 12 was tested in primer extension assays using the HIV2 100mer template. Primer extension reactions included the following reagents: 50 Mm TrisCl, 200 Mm NH4Oac, 20% PEG8K, 5% NMS, 0.6 nmol PP-60.20, 0.6 Mm MnCl2, 2.75 μg/μl Eco single-strand binding protein (SSB), 1 M urea, 50 pmol each XNTP, 1.1 pmol template, 1 pmol [COMPOUND LEFT OUT] primer, 1.2 μg/μl purified recombinant C4760 DNA polymerase (SEQ ID NO: 2), and 0.5, 1, or 1.5 Mm PEM. 10 μL primer extension reactions were run for 30 minutes at 23 °C and reaction products were analyzed by gel electrophoresis.
as §1, with “compounds 13 and 14” for “compound 12”, “(a variant of DPO4, see SEQ” for “(SEQ”, “1, 1.52,” for “1,”, “2.5” for “1.5”, “electrophoresis. A representative gel showing primer extension products is presented in FIG. 11 (the position of the full length HIV2 100mer is indicated by the arrow).” for “electrophoresis.”
PEM activity of compounds 16, 17, and 18 and combinations thereof were tested in primer extension assays using the HIV2-derived 100mer template. […] 10 μL primer extension reactions were run for 30 minutes at 37 °C and reaction products were analyzed by gel electrophoresis. A representative gel showing primer extension products is presented in FIG. 13 (the position of a 100mer product is indicated by the arrow).

[2] = target: T1, C4760 DNA polymerase (a variant of DPO4); assay: Primer extension on 45mer RNA template (HIV2) with C4760 polymerase, gel; format: biochemical, Sulfolobus solfataricus; conditions: 2 Mm PEM, 45mer RNA template derived from HIV2, Kod SSB, 30 minutes at 37 °C
Protocol: To begin to investigate the potential of PEMs to enhance diverse polymerase reactions, the ability of PEMS to enable DNA polymerase to utilize RNA as a template was tested. An initial screen of several compounds set forth in Table 1 was conducted using a 45mer RNA template derived from the HIV2 genome sequence. Primer extension reactions included the following reagents: 50 Mm TrisCl, 200 Mm NH4OAc, 20% PEG8K, 5% NMS, 0.6 nmol PP-60.20, 0.6 Mm MnCl2, 2 μg Kod single-strand binding protein (SSB), 1 M urea, 50 pmol each XNTP, 0.5 pmol template, 0.5 pmol [COMPOUND LEFT OUT] primer, 1.2 μg purified recombinant C4760 DNA polymerase (a variant of DPO4, see SEQ ID NO: 2), and 2 Mm PEM. 10 μL primer extension reactions were run for 30 minutes at 37 °C and reaction products were analyzed by gel electrophoresis.

nucleic acid polymerase = assay: PEM activity summary: primer extension on 45mer, 100mer, 150mer, 222mer DNA templates, gel (Table 2); format: biochemical; conditions: preliminary functional characterization
Protocol: In some instances, the PEM compounds of the present disclosure were tested in primer extension reactions using DNA templates of the following lengths: A) 45mer; B) 100mer; C) 150mer; and D) 222mer.

[3] = 0.5, 1, 1.52, or 2.5 Mm PEM, FIG. 11

Which “primer extension activity with XNTPs” value (DNA polymerase; FIG. 5, PEM at various concentrations, vs no PEM additive) does the source give for `O=C(O)c1ccc(-n2cc(-c3cncc(-c4cn(-c5ccc(C(=O)O)c(O)c5)nn4)c3)nn2)cc1O` [Compound 2, 4,4′-(pyridine-3,5-diylbis(1H-1,2,3-triazole-4,1-diyl))bis(2-hydroxybenzoic acid)] here?
Its value is “significantly enhances primer extension activity”.

Which “primer extension products with XNTPs” value (DNA polymerase) does the source give for `O=C(O)c1ccc(-n2cc(-c3cccc(-c4cn(-c5ccc(C(=O)O)c(O)c5)nn4)c3)nn2)cc1O` [Compound 3, 4,4′-(1,3-phenylenebis(1H-1,2,3-triazole-4,1-diyl))bis(2-hydroxybenzoic acid)] here?
The value was “considerably longer extension products”.

With `O=C(O)c1ccc(-n2cc(-c3ccc4[nH]c5ccc(-c6cn(-c7ccc(C(=O)O)c(O)c7)nn6)cc5c4c3)nn2)cc1O` [Compound 4, 4,4′-((9H-carbazole-3,6-diyl)bis(1H-1,2,3-triazole-4,1-diyl))bis(2-hydroxybenzoic acid)] as the molecule, how does the “primer extension products with XNTPs” value (DNA polymerase) read?
Its value is “considerably longer extension products”.

`N#Cc1cc(-c2cn(-c3ccc(O)c(C(=O)O)c3)nn2)nc(-c2cn(-c3ccc(O)c(C(=O)O)c3)nn2)c1` [Compound 12, 5,5′-((4-cyanopyridine-2,6-diyl)bis(1H-1,2,3-triazole-4,1-diyl))bis(2-hydroxybenzoic acid)] was tested. Which “XNTP polymerization relative to compound 10” value ([1]; 0.5, 1, or 1.5 Mm PEM, FIG. 10) did it give?
The value was “comparable to that of compound 10”.

`Cc1cc(-c2cn(-c3ccc(C(=O)O)c(O)c3)nn2)nc(-c2cn(-c3ccc(C(=O)O)c(O)c3)nn2)c1` [Compound 13, 4,4′-((4-methylpyridine-2,6-diyl)bis(1H-1,2,3-triazole-4,1-diyl))bis(2-hydroxybenzoic acid)] was tested. Which “XNTP polymerization relative to compound 10” value [1, 3] did it give?
The value was “comparable to that of compound 10”.

Which “XNTP polymerization relative to compound 10” value [1, 3] does the source give for `CCOC(=O)c1cc(-c2cn(-c3ccc(C(=O)O)c(O)c3)nn2)nc(-c2cn(-c3ccc(C(=O)O)c(O)c3)nn2)c1` [Compound 14, 4,4′-((4-(ethoxycarbonyl)pyridine-2,6-diyl)bis(1H-1,2,3-triazole-4,1-diyl))bis(2-hydroxybenzoic acid)] here?
The value was “comparable to that of compound 10”.

With `COC(=O)c1cc(-c2cn(-c3ccc(C(=O)O)c(O)c3)nn2)nc(-c2cn(-c3ccc(C(=O)O)c(O)c3)nn2)c1` [Compound 16, 4,4′-((4-(methoxycarbonyl)pyridine-2,6-diyl)bis(1H-1,2,3-triazole-4,1-diyl))bis(2-hydroxybenzoic acid)] as the molecule, how does the “XNTP polymerization relative to compound 14” value [1] read?
The value was “comparable to that of compound 14”.

Which “XNTP polymerization relative to compound 14” value [1] does the source give for `CCNC(=O)c1cc(-c2cn(-c3ccc(C(=O)O)c(O)c3)nn2)nc(-c2cn(-c3ccc(C(=O)O)c(O)c3)nn2)c1` [Compound 17, 4,4′-((4-(ethylcarbamoyl)pyridine-2,6-diyl)bis(1H-1,2,3-triazole-4,1-diyl))bis(2-hydroxybenzoic acid)] here?
Its value is “comparable to that of compound 14”.

What about the “PEM activity on RNA template” value [2] of the same molecule?
The value was “display PEM activity on an RNA template”.

For `CCNC(=O)c1cc(-c2cn(-c3ccc(C(=O)NCC(=O)NCC(=O)O)c(C(F)(F)F)c3)nn2)nc(-c2cn(-c3ccc(C(=O)NCC(=O)NCC(=O)O)c(C(F)(F)F)c3)nn2)c1` [Compound 113, 2,2′-((2,2′-((4,4′-((4-(ethylcarbamoyl)pyridine-2,6-diyl)bis(1H-1,2,3-triazole-4,1-diyl))bis(2-(trifluoromethyl)benzoyl))bis(azanediyl))bis(acetyl))bis(azanediyl))diacetic acid], which “Functional Category: PEM effect” value (nucleic acid polymerase) is on record?
Its value is “PEM effect”.

`O=C(O)c1ccc(-n2cc(-c3ccc(-c4cn(-c5ccc(C(=O)O)c(C(F)(F)F)c5)nn4)o3)nn2)cc1C(F)(F)F` [Compound 118, 4,4′-(furan-2,5-diylbis(1H-1,2,3-triazole-4,1-diyl))bis(2-(trifluoromethyl)benzoic acid)] was tested. Which “PEM activity on RNA template” value [2] did it give?
Its value is “display PEM activity on an RNA template”.

With `O=C(O)c1ccc(-n2cc(-c3cccc(-c4cn(-c5ccc(C(=O)O)c(O)c5)nn4)c3)nn2)cc1` [Compound 176, 4-(4-{m-[1-(p-Carboxyphenyl)-1H-1,2,3-triazol-4-yl]phenyl}-1H-1,2,3-triazol-1-yl)-2-hydroxybenzoic acid] as the molecule, how does the “Functional Category: PEM effect” value (nucleic acid polymerase) read?
Its value is “PEM effect”.
